Assay results: patent publication US20200375929A1, “METHODS AND COMPOSITIONS FOR THE TREATMENT OF DISEASES ASSOCIATED WITH CANCER, INFLAMMATION, OR IMMUNE RESPONSE” (Washington University, priority 2017, published 2020)
“Also recorded” adds a separate entry of the source.

Columns and labels:
SDH = molecular target: T1, SDH (Mus musculus, UniProt Q8K2B3); test: SDH activity in mouse heart and liver; format: in vivo; conditions: daily DI administration i.p.
T1 construct: from tissue; host or cells: mitochondria isolated from mouse heart and liver
Procedure: DI was administered to mice via the intraperitoneal route at 20 mg/500 μL sterile PBS per mouse either once per day for total length of 4 days (DI daily) or every 2 h, 3 times in total (DI overdose). In daily DI administration, last injection was 6 h before the tissue harvest, in DI overdose protocol last injection was 2 h before harvest. Mice were euthanized and heart (50 mg) and liver tissue (200 mg) were harvested, washed in PBS and processed for mitochondria isolation with Mitochondria Isolation Kit for Tissue (#89801, Thermo Scientific) according to manufacturer's instruction. For analysis of mitochondria purity cytoplasmic and mitochondrial fractions were diluted with reducing sample buffer and analyzed by western blot for SDH and GAPDH presence (see western blot analysis section). SDH activity in isolated mitochondria was analyzed using SDH Activity Colorimetric Kit (#MAK197, Sigma). Isolated mitochondria were directly resuspended in SDH Assay Buffer. In parallel, protein concentration in each sample was determined using RC/DC™ Protein Assay (Biorad) and activity was normalized to protein concentration.

IκBζ = test: Ikb-ζ protein in LPS-stimulated human monocytes (western blot); format: cell-based; conditions: human monocytes, DI 12 h, LPS 100 ng/ml
Procedure: Cells were lysed in RIPA Lysis Buffer System (Santa Cruz) and heat-denatured at 95° C. for 5 min in reducing sample buffer (BioRad). Proteins were separated on 4%-20% polyacrylamide gradient gels (BioRad) and transferred onto 0.45 μm pore size PVDF membranes (Millipore). Non-specific binding was blocked with 5% skim milk (or 5% BSA when phospho-proteins were analyzed), and membranes were probed with primary antibodies specific to Nrf2 (#12721), HO-1 (#70081), IκBζ (mouse specific, #93726), IκBζ(#9244), ATF3 (#D2Y5W), IRAK1 (#4504; sensitivity of IRAK1 detection diminishes upon IRAK1 K63 ubiquitination), phospho-IKK (Ser176/180, #2697), p62/SQSTM1 (#5114), phospho-eIF2α (Ser51, #9721), eIF2α (#5324) from Cell Signaling; GAPDH (sc-25778), IκBα (sc-1643), ATF3 (sc-188), SDHA (sc-166909) from Santa Cruz; NQO1 (ab28947) from Abeam, followed by incubation with anti-rabbit-HRP (1:10,000; sc-2030) or anti-mouse-HRP (1:10,000; sc-2031) from Santa Cruz and Clarity western ECL substrate (Bio-Rad). […]
Blood from healthy donors was acquired from LRS chambers supplied by the Mississippi Valley Regional Blood Center. […] After extensive washes to allow removal of non-adherent cells, monocytes (>95% purity) were harvested, counted and 5×10^5 cells were plated per well in 24-well plates. […]

T1 sequence (Q8K2B3 43-664): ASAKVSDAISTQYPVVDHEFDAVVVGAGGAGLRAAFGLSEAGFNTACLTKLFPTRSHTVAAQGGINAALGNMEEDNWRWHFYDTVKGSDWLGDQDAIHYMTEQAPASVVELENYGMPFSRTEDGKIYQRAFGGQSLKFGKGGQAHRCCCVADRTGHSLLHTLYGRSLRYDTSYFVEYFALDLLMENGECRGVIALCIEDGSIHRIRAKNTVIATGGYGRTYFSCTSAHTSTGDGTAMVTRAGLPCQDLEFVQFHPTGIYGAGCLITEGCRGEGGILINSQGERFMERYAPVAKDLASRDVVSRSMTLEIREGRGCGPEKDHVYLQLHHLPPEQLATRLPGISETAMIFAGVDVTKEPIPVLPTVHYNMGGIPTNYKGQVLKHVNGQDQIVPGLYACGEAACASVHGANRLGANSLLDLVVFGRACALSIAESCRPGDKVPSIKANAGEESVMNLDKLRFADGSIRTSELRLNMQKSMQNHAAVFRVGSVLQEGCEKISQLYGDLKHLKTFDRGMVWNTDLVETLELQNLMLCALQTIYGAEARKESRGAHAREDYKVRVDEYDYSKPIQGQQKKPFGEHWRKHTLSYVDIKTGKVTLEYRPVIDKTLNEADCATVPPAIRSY
T1 sequence (Q9CQA3 31-282 partner): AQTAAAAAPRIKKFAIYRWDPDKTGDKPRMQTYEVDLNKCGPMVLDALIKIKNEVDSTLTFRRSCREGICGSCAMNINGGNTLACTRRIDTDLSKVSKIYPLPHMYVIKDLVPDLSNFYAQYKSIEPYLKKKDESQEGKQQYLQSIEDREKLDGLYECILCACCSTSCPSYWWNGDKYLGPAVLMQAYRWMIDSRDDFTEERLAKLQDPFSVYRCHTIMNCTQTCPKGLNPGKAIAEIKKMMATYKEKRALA
T1 sequence (Q9CZB0 30-169 partner): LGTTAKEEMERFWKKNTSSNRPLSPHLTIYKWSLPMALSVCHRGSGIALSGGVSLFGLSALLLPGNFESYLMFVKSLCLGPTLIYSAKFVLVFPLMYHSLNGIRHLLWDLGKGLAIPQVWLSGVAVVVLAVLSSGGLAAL
T1 sequence (Q9CXV1 57-159 partner): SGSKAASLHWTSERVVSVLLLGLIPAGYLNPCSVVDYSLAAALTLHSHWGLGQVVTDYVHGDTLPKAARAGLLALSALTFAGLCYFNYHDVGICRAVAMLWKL

Question: What does the source list for C=C(CC(=O)OC)C(=O)OC [DI, dimethyl itaconate]?
Answer: SDH activity in heart and liver (SDH): did not significantly affect SDH activity; LPS-induced Ikb-ζ protein levels (IκBζ): decreased Ikb-ζ protein levels; also recorded: completely abolished
